The compounds below were run against human dUTPase (Homo sapiens (Human), UniProt P33316) (assay: Human dUTPase inhibitory effect: production of [5-3H]dUMP from [5-3H]dUTP, measured by HPLC with flow scintillation). Conditions: [5-3H]dUMP production from [5-3H]dUTP, 37° C., 15 minutes.
Chain of human dUTPase (P33316 94-252): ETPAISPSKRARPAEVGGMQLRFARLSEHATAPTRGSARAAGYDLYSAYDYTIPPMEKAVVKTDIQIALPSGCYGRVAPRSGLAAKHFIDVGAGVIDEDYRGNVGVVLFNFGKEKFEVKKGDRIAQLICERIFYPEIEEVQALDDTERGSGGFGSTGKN
Format: biochemical
Protocol: The inhibitory activity of the compound of the present invention against human dUTPase was determined by measuring the production of [5-^3H]deoxyuridine monophosphate (hereinafter, referred to as [5-^3H]dUMP) from [5-^3H]deoxyuridine triphosphate (hereinafter, referred to as [5-^3H]dUTP) according to a method shown below.
Specifically, 0.2 mL in total of a solution containing 0.02 mL of 1 μM dUTP (including 588 Bq/mL [5-3H]dUTP), 0.05 mL of a 0.2 M Tris buffer solution (pH 7.4), 0.05 mL of 16 mM magnesium chloride, 0.02 mL of 20 mM 2-mercaptoethanol, 0.02 mL of a 1% aqueous solution of fetal bovine serum-derived albumin, 0.02 mL of varying concentrations of test compound solutions or pure water as a control, and 0.02 mL of a solution of human dUTPase (expressed using E. coli and purified) was reacted at 37° C. for 15 minutes. Immediately after the reaction, the solution was heated at 100° C. for 1 minute to terminate the reaction, followed by centrifugation at 15000 rpm for 2 minutes. An aliquot (150 μL) of the supernatant thus obtained by centrifugation was analyzed using an Atlantis dC18 column (manufactured by Waters Corp., 4.6×250 mm) and a high-performance liquid chromatograph (manufactured by Shimadzu Corp., Prominence). Elution was performed at a flow rate of 0.8 mL/min for 30 minutes by a concentration gradient from a 4:6 mixed solution of a mobile phase A (10 mM potassium dihydrogen phosphate (pH 6.7), 10 mM tetrabutylammonium, and 0.25% methanol) and a mobile phase B (50 mM potassium dihydrogen phosphate (pH 6.7), 5.6 mM tetrabutylammonium, and 30% methanol) to the mobile phase B. The eluate was mixed with a scintillator (manufactured by PerkinElmer Co., Ltd., Ultima-Flo AP) at a 1:2 ratio, and the radioactivity of the produced [5-^3H]dUMP (RT 10.2 min) was measured using Radiomatic Flow Scintillation Analyzer (manufactured by PerkinElmer Co., Ltd., 525TR).
The inhibitory activity of the test compound was determined according to the formula shown below.
Work on `O=c1ccn(COCCOC(c2ccccc2)(c2ccccc2)c2ccccc2)c(=O)[nH]1` [Comparative Example 1, reference compound] yielded an IC50 of 185000 nM.
In the case of `CN(C(CCn1ccc(=O)[nH]c1=O)C(=O)NO)S(=O)(=O)c1ccc(Oc2ccccc2)cc1` (stereo not shown) [Comparative Example 2, 4-(2,4-Dioxo-3,4-dihydropyrimidin-1(2H)-yl)-N-hydroxy-2-(N-methyl-4-phenoxyphenylsulfonamide)butanamide, reference compound], the IC50 is reported as 97200 nM.
With `O=c1ccn(COCCCS(=O)(=O)NCc2cccc(OCC3CC3)c2)c(=O)[nH]1` [Example 1, N-(3-(cyclopropylmethoxy)benzyl)-3-((2,4-dioxo-3,4-dihydropyrimidin-1(2H)-yl)methoxy)propane-1-sulfonamide] the IC50 was 330 nM.
`C[C@@H](NS(=O)(=O)CCCOCn1ccc(=O)[nH]c1=O)c1cccc(OCC(C)(C)O)c1` [Example 2, (R)-3-((2,4-dioxo-3,4-dihydropyrimidin-1(2H)-yl)methoxy)-N-(1-(3-(2-hydroxy-2-methylpropoxy)phenyl)ethyl)propane-1-sulfonamide] was tested, and the IC50 was 1870 nM.
For `CC[C@@](O)(CNS(=O)(=O)CCCOCn1ccc(=O)[nH]c1=O)c1ccc(F)c(OC2CCCC2)c1` [Example 3, (S)—N-(2-(3-(cyclopentyloxy)-4-fluorophenyl)-2-hydroxybutyl)-3-((2,4-dioxo-3,4-dihydropyrimidin-1(2H)-yl)methoxy)propane-1-sulfonamide], the IC50 was 870 nM.
Compound `O=c1ccn(COCCCS(=O)(=O)NCc2cccc(OC3CCC3)c2)c(=O)[nH]1` [Example 4, N-(3-cyclobutoxybenzyl)-3-((2,4-dioxo-3,4-dihydropyrimidin-1(2H)-yl)methoxy)propane-1-sulfonamide] has an IC50 of 610 nM.
`C[C@@H](NS(=O)(=O)CCCOCn1ccc(=O)[nH]c1=O)c1cccc(OC2CCCC2)c1` [Example 5, (R)—N-(1-(3-(cyclopentyloxy)phenyl)ethyl)-3-((2,4-dioxo-3,4-dihydropyrimidin-1(2H)-yl)methoxy)propane-1-sulfonamide] showed an IC50 of 60 nM.
In the case of `C[C@@H](NS(=O)(=O)CCCOCn1ccc(=O)[nH]c1=O)c1cccc(O[C@@H]2CCOC2)c1` [Example 6, 3-((2,4-dioxo-3,4-dihydropyrimidin-1(2H)-yl)methoxy)-N—((R)-1-(3-((R)-tetrahydrofuran-3-yloxy)phenyl)ethyl)propane-1-sulfonamide], the IC50 is reported as 460 nM.
In the case of `O=c1ccn(COCCCS(=O)(=O)NCc2ccc(F)c(OCC3CC3)c2)c(=O)[nH]1` [Example 7, N-(3-(cyclopropylmethoxy)-4-fluorobenzyl)-3-((2,4-dioxo-3,4-dihydropyrimidin-1(2H)-yl)methoxy)propane-1-sulfonamide], the IC50 is reported as 640 nM.
`C[C@@H](NS(=O)(=O)CCCOCn1ccc(=O)[nH]c1=O)c1ccc(F)c(OCC2CC2)c1` [Example 8, (R)—N-(1-(3-(cyclopropylmethoxy)-4-fluorophenyl)ethyl)-3-((2,4-dioxo-3,4-dihydropyrimidin-1(2H)-yl)methoxy)propane-1-sulfonamide] was tested, and the IC50 was 90 nM.
`CC(C)[C@@H](NS(=O)(=O)CCCOCn1ccc(=O)[nH]c1=O)c1ccc(F)c(OCC2CC2)c1` [Example 9, (R)—N-(1-(3-(cyclopropylmethoxy)-4-fluorophenyl)-2-methylpropyl)-3-((2,4-dioxo-3,4-dihydropyrimidin-1(2H)-yl)methoxy)propane-1-sulfonamide] gave an IC50 of 40 nM.
Work on `O=c1ccn(COCCCS(=O)(=O)NC(c2ccccc2)c2cccc(OCC3CC3)c2)c(=O)[nH]1` (stereo not shown) [Example 10, N-((3-(cyclopropylmethoxy)phenyl)(phenyl)methyl)-3-((2,4-dioxo-3,4-dihydropyrimidin-1(2H)-yl)methoxy)propane-1-sulfonamide] yielded an IC50 of 160 nM.
`CC(NS(=O)(=O)CCCOCn1ccc(=O)[nH]c1=O)c1cccc(OCC2CC2)c1` (stereo not shown) [Example 11, N-(1-(3-(cyclopropylmethoxy)phenyl)ethyl)-3-((2,4-dioxo-3,4-dihydropyrimidin-1(2H)-yl)methoxy)propane-1-sulfonamide] showed an IC50 of 490 nM.
Work on `O=c1ccn(COCCCS(=O)(=O)NCc2cccc(SCC3CC3)c2)c(=O)[nH]1` [Example 12, N-(3-(cyclopropylmethylthio)benzyl)-3-((2,4-dioxo-3,4-dihydropyrimidin-1(2H)-yl)methoxy)propane-1-sulfonamide] yielded an IC50 of 2830 nM.
`C[C@@H](NS(=O)(=O)CCCOCn1ccc(=O)[nH]c1=O)c1cccc(OC2CC2)c1` [Example 13, (R)—N-(1-(3-cyclopropoxyphenyl)ethyl)-3-((2,4-dioxo-3,4-dihydropyrimidin-1(2H)-yl)methoxy)propane-1-sulfonamide] showed an IC50 of 330 nM.
`CCC(CC)(NS(=O)(=O)CCCOCn1ccc(=O)[nH]c1=O)c1cccc(OCC2CC2)c1` [Example 14, N-(3-(3-(cyclopropylmethoxy)phenyl)pentan-3-yl)-3-((2,4-dioxo-3,4-dihydropyrimidin-1(2H)-yl)methoxy)propane-1-sulfonamide] gave an IC50 of 210 nM.
For `O=c1ccn(COCCCS(=O)(=O)NC(c2ccccc2)c2cccc(OC(F)(F)C(F)F)c2)c(=O)[nH]1` (stereo not shown) [Example 15, 3-((2,4-dioxo-3,4-dihydropyrimidin-1(2H)-yl)methoxy)-N-(phenyl(3-(1,1,2,2-tetrafluoroethoxy)phenyl)methyl)propane-1-sulfonamide], the IC50 was 940 nM.
`CC(C)COc1cccc(C(NS(=O)(=O)CCCOCn2ccc(=O)[nH]c2=O)c2ccccc2)c1` (stereo not shown) [Example 16, 3-((2,4-dioxo-3,4-dihydropyrimidin-1(2H)-yl)methoxy)-N-((3-isobutoxyphenyl)(phenyl)methyl)propane-1-sulfonamide] was tested, and the IC50 was 600 nM.
For `O=c1ccn(COCCCS(=O)(=O)NC(c2cccc(OCC3CC3)c2)c2cccc(OCC3CC3)c2)c(=O)[nH]1` [Example 17, N-(bis(3-(cyclopropylmethoxy)phenyl)methyl)-3-((2,4-dioxo-3,4-dihydropyrimidin-1(2H)-yl)methoxy)propane-1-sulfonamide], the IC50 was 210 nM.
Compound `CC[C@H](C)COc1cccc(C(NS(=O)(=O)CCCOCn2ccc(=O)[nH]c2=O)c2ccccc2)c1` (stereo partly drawn) [Example 18, 3-((2,4-dioxo-3,4-dihydropyrimidin-1(2H)-yl)methoxy)-N-((3-((S)-2-methylbutoxy)phenyl) (phenyl)methyl)propane-1-sulfonamide] has an IC50 of 1650 nM.
In the case of `O=c1ccn(COCCCS(=O)(=O)NC(c2ccc(F)cc2)c2ccc(F)c(OCC3CC3)c2)c(=O)[nH]1` (stereo not shown) [Example 19, N-((3-(cyclopropylmethoxy)-4-fluorophenyl)(4-fluorophenyl)methyl)-3-((2,4-dioxo-3,4-dihydropyrimidin-1(2H)-yl)methoxy)propane-1-sulfonamide], the IC50 is reported as 240 nM.
`CCC(CC)(NS(=O)(=O)CCCOCn1ccc(=O)[nH]c1=O)c1ccc(F)c(OCC2CC2)c1` [Example 20, N-(3-(3-(cyclopropylmethoxy)-4-fluorophenyl)pentan-3-yl)-3-((2,4-dioxo-3,4-dihydropyrimidin-1(2H)-yl)methoxy)propane-1-sulfonamide] was tested, and the IC50 was 190 nM.
With `O=c1ccn(COCCCS(=O)(=O)NCc2cccc(OC3CCCC3)c2)c(=O)[nH]1` [Example 21, N-(3-(cyclopentyloxy)benzyl)-3-((2,4-dioxo-3,4-dihydropyrimidin-1(2H)-yl)methoxy)propane-1-sulfonamide] the IC50 was 270 nM.
`CC[C@@H](NS(=O)(=O)CCCOCn1ccc(=O)[nH]c1=O)c1ccc(F)c(OCC2CC2)c1` [Example 22, (R)—N-(1-(3-(cyclopropylmethoxy)-4-fluorophenyl)propyl)-3-((2,4-dioxo-3,4-dihydropyrimidin-1(2H)-yl)methoxy)propane-1-sulfonamide] showed an IC50 of 30 nM.
Compound `C[C@@H](NS(=O)(=O)CCCOCn1ccc(=O)[nH]c1=O)c1cccc(OCC2CC2)c1` [Example 23, (R)—N-(1-(3-(cyclopropylmethoxy)phenyl)ethyl)-3-((2,4-dioxo-3,4-dihydropyrimidin-1(2H)-yl)methoxy)propane-1-sulfonamide] has an IC50 of 50 nM.
In the case of `C[C@@H](NS(=O)(=O)CCCOCn1ccc(=O)[nH]c1=O)c1ccc(F)c(OC2CCCC2)c1` [Example 24, (R)—N-(1-(3-(cyclopentyloxy)-4-fluorophenyl)ethyl)-3-((2,4-dioxo-3,4-dihydropyrimidin-1(2H)-yl)methoxy)propane-1-sulfonamide], the IC50 is reported as 40 nM.
With `CC(C)C(NS(=O)(=O)CCCOCn1ccc(=O)[nH]c1=O)c1ccc(F)c(OCC2CC2)c1` (stereo not shown) [Example 25, N-(1-(3-(cyclopropylmethoxy)-4-fluorophenyl)-2-methylpropyl)-3-((2,4-dioxo-3,4-dihydropyrimidin-1(2H)-yl)methoxy)propane-1-sulfonamide] the IC50 was 100 nM.
For `CC(C)(NS(=O)(=O)CCCOCn1ccc(=O)[nH]c1=O)c1cccc(OCC2CC2)c1` [Example 26, N-(2-(3-(cyclopropylmethoxy)phenyl)propan-2-yl)-3-((2,4-dioxo-3,4-dihydropyrimidin-1(2H)-yl)methoxy)propane-1-sulfonamide], the IC50 was 520 nM.
